According to patent US8901317B2, “Tryptamine derivatives, their preparation and their use in gastropathy” (Council of Scientific & Industrial Research, priority 2010, dated 2014):

Experiments:
[1] = DPPH free radical scavenging assay
Description: The antioxidant property of different tryptamine derivatives were assessed and compared with the known antioxidants for potency. A range of different synthesized compounds and known anti oxidants, quercetin, ascorbic acid and gallic acid were analyzed by the FRAP assay. The FRAP assay is based on the measurement of the ability of the substance to reduce Fe^3+ to Fe^2+, greater the reducing ability greater the anti oxidant property. Antioxidants reduce Fe^3+-TPTZ in to blue colored Fe^2+-TPTZ complex, which results in an increase in the absorbance at 595 nm giving a FRAP value. […] Absorbance changes at different time intervals (FIG. 6) as well as at different concentrations (FIG. 7) at time 6 min in the presence of different compounds at 595 nm were measured. FRAP values at 6 min and 65 min were calculated from different tryptamine derivatives and some known antioxidant (Table 1). […] DPPH assay based on the DPPH free radicals scavenging power of the antioxidant molecules. Higher the scavenging power higher will be the antioxidant property. […] This assay was performed in presence of some known antioxidants such as ascorbic acid, quercetin and gallic acid.
2,2-Diphenyl-1-Picrylhydrazyl (DPPH) is a stable free radical that can accept hydrogen radical or an electron and become a stable diamagnetic molecule. The antioxidants can scavenge the DPPH by donating hydrogen as visualized by discoloration of the DPPH radical from purple to yellow (Pal, C; et al. Free Radic Biol Med, 49(2), 258-267; 2010, Ben Farhat, M.; et al. J. Agric. Food Chem. 57:10349-10356; 2009, Han, J; et al. Wei Sheng Yan Jiu 38:596-598; 2009). The assay system contained 1 mL of compounds under investigation dissolved (in methanol, some compound dissolved in water) at different concentrations in the range 10-100 μM solution and 4 ml of DPPH (0.15 mM) in methanol (80% in water v/v) and mixed well. It was allowed to stand for 30 min at 27° C. away from light. Ascorbic acid at the same concentration was taken as positive control. The absorbance of the solution was measured spectrophotometrically at 517 nm and from the decrease of absorption; the antioxidant activity of different tryptamine derivatives were determined.

[2] = system: indomethacin-induced gastric mucosal damage; assay: Indomethacin-induced gastric mucosal damage (ulcer index, histology); type: in vivo, Sprague-Dwaley rats
Description: Sprague-Dwaley rats (180-220 gm) were used for this study. Each group (control or experimental) of animals was maintained at 24±2° C. with 12 hrs lights and dark cycle. The animals were fasted for 24 hrs before the start of experiments. They were provided with water ad libitum to avoid food-induced increased acid secretion and its effect on gastric lesions. Gastric mucosal ulcer was developed by indomethacin as described (Pal, C; et al. Free Radic Biol Med, 49(2), 258-267; 2010, Biswas, K.; et al. J. Biol. Chem. 278:10993-11001; 2003, Bandyopadhyay, U.; et al. Life Sci. 71:2845-2865; 2002). Briefly, all the animals were divided into control, indomethacin and test compound group. Oral administration of indomethacin at a dose of 48 mg kg^−1 b.w was given to the fasted animals to induce gastric ulcer. […] Control group received vehicle only but no indomethacin. After 4 hrs of indomethacin treatment, the animals were sacrificed under proper euthanasia and stomachs were collected. The mucosal injury was scored as ulcer index as follows: 0=no pathology; 1=one pinhead ulcer. The sum of the total scores divided by the number of animals gave the ulcer index. All the in vivo studies were done in accordance with the institute animal ethical committee guidelines. To see the effect of SEGA on diclofenac induced gastric mucosal injury, gastric mucosal damage was developed by the oral administration of diclofenac (75 mg kg^−1) and the rest of the experiment was carried out in a similar way as described for indomethacin. Diclofenac produced pinhead ulcer like indomethacin and the mucosal injury was scored as ulcer index as described above. Ethanol-induced gastric mucosal injury was developed with oral administration of 1 ml of 50% ethanol (Banerjee, R. K. (2002) Life Sci 71, 2845-2865) and after 4 hrs the animals were sacrificed and cold-restrain stress induced mucosal injury was developed by immobilizing the animals at 4° C. for 3.5 hrs (Banerjee, R. K. (2002) Life Sci 71, 2845-2865, (2003) J Biol Chem 278, 10993-11001).
Stomach tissues from the animals of different groups were washed first washed several times with PBS (pH 7.4) and later fixed in 10% buffered formalin for 12 hrs at 25° C. The formalin-fixed tissues were then dehydrated and embedded in paraffin for preparing semi-thin sections (Maity, P.; et al. J. Biol. Chem. 283:14391-14401; 2008). The semi-thin sections were prepared using a microtome and taken over poly-L-lysine coated glass slide for hematoxylene-eosine staining. The stained sections were observed under microscope (Leica DM-2500, Germany) and were documented by high-resolution digital camera.

[3] = system: caspase-9; assay: Caspase-9 activity in gastric mucosal tissue; type: in vivo, rats; details: gastric mucosa
Description: From cytosolic fraction of gastric mucosal tissues, caspase-9 and caspse-3 activities were measured using commercially available kit (Biovision, Mountain View, Calif., USA and Sigma respectively). In brief, the gastric mucosa was homogenized in caspase lysis buffer (provided with the respective kit). The homogenate was centrifuged at 16,000×g for 15 min. The supernatant was collected and mixed with 50 μl of 2× reaction buffer (provided with the respective kit). This was followed by addition of the substrates: […] (200 μM final concentration) for caspase-3 and LEHD-pNA (200 μM final concentration) for caspase-9. The mixture was incubated at 37° C. for 1 hr and absorbance was taken at 405 nm (Maity, P.; et al. J. Biol. Chem. 284:3058-3068; 2009, Maity, P.; et al. J. Biol. Chem. 283:14391-14401; 2008, Maity, P.; et al. J. Pineal Res. 46:314-323; 2009).

Compound: O=C(NCCc1c[nH]c2ccc(O)cc12)c1cc(O)c(O)c(O)c1 [Compound 3a, 3,4,5-trihydroxy-N-(2-(5-hydroxy-1H-indol-3-yl)ethyl)benzamide]
- DPPH scavenging power in words ([1]; among all the derivatives): higher scavenging power
- Absorbance change (ΔA) at 30 min ([1]; compounds 100 μM, 517 nm (Table 2)): 0.45 ± 0.08
- Absorbance change (ΔA) at 30 min ([1]; concentration 10 μM (Table 3)): 0.27 ± 0.03
- Absorbance change (ΔA) at 30 min ([1]; concentration 30 μM (Table 3)): 0.34 ± 0.05
- Absorbance change (ΔA) at 30 min ([1]; concentration 50 μM (Table 3)): 0.37 ± 0.07
- Absorbance change (ΔA) at 30 min ([1]; concentration 80 μM (Table 3)): 0.42 ± 0.07
- Absorbance change (ΔA) at 30 min ([1]; concentration 100 μM (Table 3)): 0.45 ± 0.08
- antioxidant power compared with ascorbic acid, quercetin and gallic acid ([1]; data not shown): almost equal antioxidant power
- Gastric mucosal damage (ulcer index) ([2]; compound 6.9 mg kg^−1 intraperitoneally before indomethacin 48 mg kg^−1 oral, rats): 30 ± 3
- protection, indomethacin-induced gastric mucosal injury ([2]; dose 1 mg kg^−1 i.p.): 17%
- protection, indomethacin-induced gastric mucosal injury ([2]; dose 3 mg kg^−1 i.p.): 28%
- protection, indomethacin-induced gastric mucosal injury ([2]; dose 5 mg kg^−1 i.p.): 45%
- protection, indomethacin-induced gastric mucosal injury ([2]; dose 10 mg kg^−1 i.p.): 62%
- protection, indomethacin-induced gastric mucosal injury ([2]; dose 20 mg kg^−1 i.p.): 82%
- protection, indomethacin-induced gastric mucosal injury ([2]; dose 50 mg kg^−1 i.p.): 94%
- ED50, prevention of indomethacin-induced gastric mucosal damage ([2]; intraperitoneal, rats, listed as SEGA (3a)): 6.9 mg/kg
- histology of gastric mucosal tissue (haematoxylin-eosin) ([2]; pretreated indomethacin-treated rats): could protect gastric mucosa
- activation of caspase-9 during indomethacin treatment [3]: prevents the activation of caspase-9
